# Source: patent US20250304559A1, “Ether-Linked Antiviral Compounds” (Pfizer Inc., priority 2021, published 2025)
# Where a name gives a salt, the structure may show the parent alone. Read-outs that look alike come from different tables or passages of the source.
# Assays:
# SARS-CoV-2 3CL protease = target: T1, SARS-CoV-2 3CL protease (Severe acute respiratory syndrome coronavirus 2, UniProt P0DTD1); assay: SARS-CoV-2 Coronavirus 3C Protease FRET Assay; format: biochemical; settings: Morrison equation fit, 15 nM enzyme, 25 μM peptide substrate
# T1 construct: measures the activity of full-length SARS-CoV-2 3CL protease
# [1] = tested on: SARS-CoV-2 (USA_WA1/2020); assay: Antiviral Activity from SARS-CoV-2 Infection (cytopathic effect, Cell Titer-Glo); format: cell-based; settings: VeroE6 cells enriched for hACE2, MOI 0.002, 3-day incubation, tested alone or with P-gp inhibitor CP-100356 2 μM (table does not say which), read-out: Geometric Mean EC50
# [2] = Examples 14-78 and 114 (second head of Table 2), read-out: Geometric Mean Ki (nM) IC50
# [3] = Severe acute respiratory syndrome coronavirus 2, Vero C1008, 72 h
# [4] = Examples 1-13, 60 minutes at 23° C., read-out: Geometric Mean Ki
Compound,Ki (SARS-CoV-2 3CL protease; [2]),"EC50 [1, 3]",EC50 [1],Ki (SARS-CoV-2 3CL protease; [4])
"CC(C)[C@H](NC(=O)C(F)(F)F)C(=O)N1C[C@H]2[C@@H]([C@H]1C(=O)N[C@@H](C[C@@H]1CCNC1=O)C(=O)COc1ccccc1F)C2(C)C [Example 47, (1R,2S,5S)-N-{(2S)-4-(2-fluorophenoxy)-3-oxo-1-[(3S)-2-oxopyrrolidin-3-yl]butan-2-yl}-6,6-dimethyl-3-[N-(trifluoroacetyl)-L-valyl]-3-azabicyclo[3.1.0]hexane-2-carboxamide]",8.58 nM,59.7 nM,,
"CC(C)[C@H](NC(=O)C(F)(F)F)C(=O)N1C[C@H]2[C@@H]([C@H]1C(=O)N[C@@H](C[C@@H]1CCNC1=O)C(=O)COc1ncnn1-c1ccccc1)C2(C)C [Example 64, (1R,2S,5S)-6,6-dimethyl-N-{(2S)-3-oxo-1-[(3S)-2-oxopyrrolidin-3-yl]-4-[(1-phenyl-1H-1,2,4-triazol-5-yl)oxy]butan-2-yl}-3-[N-(trifluoroacetyl)-L-valyl]-3-azabicyclo[3.1.0]hexane-2-carboxamide]",62.2 nM,5360 nM,,
"CC(C)C[C@@H](C(=O)N1C[C@H]2[C@@H]([C@H]1C(=O)N[C@@H](C[C@@H]1CCNC1=O)C(=O)COc1cc(C(F)(F)F)nn1C)C2(C)C)N(C)C(C)C (single isomer, unassigned) [Example 73, (1R,2S,5S)-6,6-dimethyl-3-[N-methyl-N-(propan-2-yl)-L-leucyl]-N-{(2R*)-4-{[1-methyl-3-(trifluoromethyl)-1H-pyrazol-5-yl]oxy}-3-oxo-1-[(3S)-2-oxopyrrolidin-3-yl]butan-2-yl}-3-azabicyclo[3.1.0]hexane-2-carboxamide, DIAST-2]",962 nM,,140 nM,
"CC(C)[C@H](NC(=O)C(F)(F)F)C(=O)N1C[C@H]2[C@@H]([C@H]1C(=O)N[C@@H](C[C@@H]1CC(=O)NC1=O)C(=O)COc1ccc(F)cc1F)C2(C)C [Example 42, (1R,2S,5S)-N-{(2S)-4-(2,4-difluorophenoxy)-1-[(3R)-2,5-dioxopyrrolidin-3-yl]-3-oxobutan-2-yl}-6,6-dimethyl-3-[N-(trifluoroacetyl)-L-valyl]-3-azabicyclo[3.1.0]hexane-2-carboxamide]",7.05 nM,301 nM,,
"Cc1cc(OCC(=O)[C@H](C[C@@H]2CCNC2=O)NC(=O)[C@@H]2[C@@H]3[C@H](CN2C(=O)[C@@H](NC(=O)C(F)(F)F)C(C)C)C3(C)C)no1 [Example 61, (1R,2S,5S)-6,6-dimethyl-N-{(2S)-4-[(5-methyl-1,2-oxazol-3-yl)oxy]-3-oxo-1-[(3S)-2-oxopyrrolidin-3-yl]butan-2-yl}-3-[N-(trifluoroacetyl)-L-valyl]-3-azabicyclo[3.1.0]hexane-2-carboxamide]",31.7 nM,1800 nM,,
"CC(C)[C@H](NS(=O)(=O)C(F)(F)F)C(=O)N1C[C@H]2[C@@H]([C@H]1C(=O)N[C@@H](C[C@@H]1CCNC1=O)C(=O)COc1cccc(Cl)c1)C2(C)C [Example 40, (1R,2S,5S)-N-{(2S)-4-(3-chlorophenoxy)-3-oxo-1-[(3S)-2-oxopyrrolidin-3-yl]butan-2-yl}-6,6-dimethyl-3-[N-(trifluoromethanesulfonyl)-L-valyl]-3-azabicyclo[3.1.0]hexane-2-carboxamide]",4.22 nM,112 nM,,
"CC(C)[C@H](NS(C)(=O)=O)C(=O)N1CCC2(CC2)C[C@H]1C(=O)N[C@@H](C[C@@H]1CCNC1=O)C(=O)COc1ccc(F)cc1F (single isomer, unassigned) [Example 59, (5R*)-N-{(2S)-4-(2,4-difluorophenoxy)-3-oxo-1-[(3S)-2-oxopyrrolidin-3-yl]butan-2-yl}-6-[N-(methanesulfonyl)-L-valyl]-6-azaspiro[2.5]octane-5-carboxamide, DIAST-1]",9.27 nM,,299 nM,
"CCC(C(NC(=O)C(F)(F)F)C(=O)N1C[C@H]2[C@@H]([C@H]1C(=O)N[C@@H](C[C@@H]1CCNC1=O)C(=O)COc1ccc(F)cc1F)C2(C)C)C(F)(F)F (stereo in doubt) [Example 32, (1R,2S,5S)-N-{(2S)-4-(2,4-difluorophenoxy)-3-oxo-1-[(3S)-2-oxopyrrolidin-3-yl]butan-2-yl}-6,6-dimethyl-3-[3′,3′,3′-trifluoro-N-(trifluoroacetyl)-L-isoleucyl]-3-azabicyclo[3.1.0]hexane-2-carboxamide]",2.42 nM,98.9 nM,,
"CC(C)c1cccc(OCC(=O)[C@H](C[C@@H]2CCNC2=O)NC(=O)[C@@H]2[C@@H]3[C@H](CN2C(=O)[C@@H](NC(=O)C(F)(F)F)C(C)C)C3(C)C)c1 [Example 56, (1R,2S,5S)-6,6-dimethyl-N-{(2S)-3-oxo-1-[(3S)-2-oxopyrrolidin-3-yl]-4-[3-(propan-2-yl)phenoxy]butan-2-yl}-3-[N-(trifluoroacetyl)-L-valyl]-3-azabicyclo[3.1.0]hexane-2-carboxamide]",14.4 nM,119 nM,,
"Cn1nc(C(F)(F)F)cc1OCC(=O)[C@H](C[C@@H]1CCNC1=O)NC(=O)[C@@H]1[C@@H]2[C@H](CN1C(=O)[C@@H](NS(=O)(=O)C(F)(F)F)C(C)(C)C)C2(C)C [Example 6, (1R,2S,5S)-6,6-dimethyl-N-{(2S)-4-{[1-methyl-3-(trifluoromethyl)-1H-pyrazol-5-yl]oxy}-3-oxo-1-[(3S)-2-oxopyrrolidin-3-yl]butan-2-yl}-3-{3-methyl-N-[(trifluoromethyl)sulfonyl]-L-valyl}-3-azabicyclo[3.1.0]hexane-2-carboxamide]",,735 nM,,19.8 nM
"CC(C)(C)[C@H](NS(=O)(=O)C(F)(F)F)C(=O)N1C[C@H]2[C@@H]([C@H]1C(=O)N[C@@H](C[C@@H]1CCNC1=O)C(=O)COc1cc(F)ccc1F)C2(C)C [Example 34, (1R,2S,5S)-N-{(2S)-4-(2,5-difluorophenoxy)-3-oxo-1-[(3S)-2-oxopyrrolidin-3-yl]butan-2-yl}-6,6-dimethyl-3-[3-methyl-N-(trifluoromethanesulfonyl)-L-valyl]-3-azabicyclo[3.1.0]hexane-2-carboxamide]",6.95 nM,86 nM,,
"CC(C)[C@H](NS(=O)(=O)C(F)(F)F)C(=O)N1C[C@H]2[C@@H]([C@H]1C(=O)N[C@@H](C[C@@H]1CCNC1=O)C(=O)COc1cc(C(F)(F)F)nn1C)C2(C)C [Example 11, (1R,2S,5S)-6,6-dimethyl-N-{(2S)-4-{[1-methyl-3-(trifluoromethyl)-1H-pyrazol-5-yl]oxy}-3-oxo-1-[(3S)-2-oxopyrrolidin-3-yl]butan-2-yl}-3-{N-[(trifluoromethyl)sulfonyl]-L-valyl}-3-azabicyclo[3.1.0]hexane-2-carboxamide]",,2030 nM,,13.5 nM
"CC(C)[C@H](NC(=O)C(F)(F)F)C(=O)N1C[C@H]2[C@@H]([C@H]1C(=O)N[C@@H](C[C@@H]1CCNC1=O)C(=O)COc1cc(C(F)(F)F)nn1C)C2(C)C [Example 9, (1R,2S,5S)-6,6-dimethyl-N-{(2S)-4-{[1-methyl-3-(trifluoromethyl)-1H-pyrazol-5-yl]oxy}-3-oxo-1-[(3S)-2-oxopyrrolidin-3-yl]butan-2-yl}-3-[N-(trifluoroacetyl)-L-valyl]-3-azabicyclo[3.1.0]hexane-2-carboxamide, trifluoroacetate salt]",,265 nM,,42.8 nM
